# Measured values taken from patent US5166204A, “Isoindole derivatives and salts thereof and antitumor agent comprising the same” (Toyama Chemical Co., Ltd., priority 1989, dated 1992).
# Structures can show the parent of a compound that is named as a salt. Where two headings read alike, the source gives them in different places.
# Experiments:
# [1] = system: HeLa S-3 cells; test: HeLa S-3 cell growth inhibition test; type: cell-based; conditions: Homo sapiens, 96 h; HeLa S-3 cells, 37° C., 4 days, Giemsa's staining; read-out: minimum growth inhibition concentration (MIC)
# Protocol: (a) HeLa S-3 Cell Growth Inhibition Test
# A test compound was appropriately diluted with a liquid medium (a minimum essential medium containing a 10% fecal calf serum). The resulting liquid was poured into each well of a 96-well micro titer plate, in an amount of 0.1 ml/well. Then, HeLa S-3 cells were diluted with the same liquid medium so that the cell concentration became 2×10^4 cells/ml, and the resulting liquid was poured into each well of the above plate in an amount of 0.1 ml/well. The resulting plate was allowed to stand in a CO2 gas incubator of 37° C. for 4 days, to effect incubation. After the incubation, the supernatant liquid in each well was removed and fixation by ethanol was effected for 10 minutes. The fixed cells were tinted with a Giemsa's staining solution to determine the minimum growth inhibition concentration (MIC) of test compound for HeLa S-3 cells.
# [2] = system: L-1210 ascites tumor; test: Effect on L-1210 ascites tumor (survival of tumor-transplanted mice); type: in vivo, CDF1 strain mice; conditions: Mus musculus, L1210, ip, 720 h, survival observed 30 days, read-out: prolongation of survival time T/C; for response vs control in vivo at 25 mg/kg: 25 mg/kg i.p.; for response vs control in vivo at 5 mg/kg: 5 mg/kg i.p.; for response vs control in vivo at 1 mg/kg: 1 mg/kg i.p.
# Protocol: (b) Effect on L-1210 Ascites Tumor
# 1×10^5 L-1210 cells were intraperitoneally transplanted to CDF1 strain mice in groups of 6 members (male, 5-week old, weight =about 25 g) on day 0. A test compound dissolved in an aqueous 5% glucose solution was intraperitoneally administered to the test group of the above mice twice on day 1 and day 5. Only the aqueous 5% glucose solution was administered to the control group. Incidentally, the 25 mg/kg administration of the test compound No. 30 was effected only once on day 1. There were examined (a) the average survival days of the test group and (b) the average survival days of the control group. The examination period for survival days was 30 days. From the (a) and (b) was calculated a prolongation of survival time [T/C (%)], using the following equation: […]
# [3] = system: Ehrlich solid cancer; test: Effect on Ehrlich solid cancer (tumor weight in mice); type: in vivo, ddY strain mice; conditions: Mus musculus, iv, 240 h; for response vs control in vivo at 50 mg/kg: 50 mg/kg i.v.; for response vs control in vivo at 7 mg/kg: 7 mg/kg i.v.; for response vs control in vivo at 10 mg/kg: 10 mg/kg i.v.; for response vs control in vivo at 14 mg/kg: 14 mg/kg i.v.
# Protocol: (c) Effect on Ehrlich Solid Cancer 5×10^6 Ehrlich cells were transplanted to ddY strain mice in groups of 7 members (male, 5-week old, weight=about 25 g) subcutaneously at the left groin on day 0. […] Only the aqueous 5% glucose solution was administered to the control group. […] From the (a) and (b) was calculated T/C (%), using the following equation: T/C (%)=(a/b)×100
# [4] = only once on day 1, day 10, read-out: T/C (average tumor weight, treated/control)
# [5] = twice on day 1 and day 5, day 10, read-out: T/C (average tumor weight, treated/control)
smiles,measurement,setting,value
CN(C)CCN1C(=O)c2ccc3[nH]c4ccccc4c3c2C1=O [compound 1],MIC,[1],3.13 mg/L
same,response vs control in vivo at 25 mg/kg,[2]; twice on day 1 and day 5,137%
same,response vs control in vivo at 50 mg/kg,"[3]; daily for six consecutive days (day 1 to 6), day 10, read-out: T/C (average tumor weight, treated/control)",18%
Cc1cc2c(c3c1[nH]c1ccccc13)C(=O)N(CCN(C)C)C2=O [compound 2],MIC,[1],0.16 mg/L
same,response vs control in vivo at 5 mg/kg,[2]; twice on day 1 and day 5,180%
Cc1cc2[nH]c3ccccc3c2c2c1C(=O)N(CCN(C)C)C2=O [compound 3],MIC,[1],0.1 mg/L
same,response vs control in vivo at 25 mg/kg,[2]; twice on day 1 and day 5,167%
CN(C)CCN1C(=O)c2ccc3[nH]c4ccc(Cl)cc4c3c2C1=O [compound 9],MIC,[1],3.13 mg/L
same,response vs control in vivo at 25 mg/kg,[2]; twice on day 1 and day 5,131%
COc1ccc2[nH]c3ccc4c(c3c2c1)C(=O)N(CCN(C)C)C4=O [compound 15],MIC,[1],3.13 mg/L
same,response vs control in vivo at 25 mg/kg,[2]; twice on day 1 and day 5,160%
COc1ccc2[nH]c3cc(C)c4c(c3c2c1)C(=O)N(CCN(C)C)C4=O [compound 17],MIC,[1],0.16 mg/L
same,response vs control in vivo at 5 mg/kg,[2]; twice on day 1 and day 5,126%
same,response vs control in vivo at 25 mg/kg,[2]; twice on day 1 and day 5,129%
CN(C)CCN1C(=O)c2ccc3[nH]c4cc5c(cc4c3c2C1=O)OCO5 [compound 22],MIC,[1],0.16 mg/L
same,response vs control in vivo at 5 mg/kg,[2]; twice on day 1 and day 5,143%
same,response vs control in vivo at 25 mg/kg,[2]; twice on day 1 and day 5,160%
"CN(C)CCN1C(=O)c2ccc3[nH]c4ccc(O)cc4c3c2C1=O.Cl [compound 23, N-(2-dimethylaminoethyl)-6-hydroxycarbazole-3,4-dicarboximide hydrochloride]",MIC,[1],0.8 mg/L
same,response vs control in vivo at 1 mg/kg,[2]; twice on day 1 and day 5,128%
same,response vs control in vivo at 5 mg/kg,[2]; twice on day 1 and day 5,> 272%
same,response vs control in vivo at 15 mg/kg,"[3]; 15 mg/kg i.v., twice on day 1 and day 5, day 10, read-out: T/C (average tumor weight, treated/control)",10%
"Cc1cc2c(c3c1[nH]c1ccc(O)cc13)C(=O)N(CCN(C)C)C2=O.Cl [compound 24, N-(2-dimethylaminoethyl)-6-hydroxy-1-methylcarbazole-3,4-dicarboximide hydrochloride]",MIC,[1],0.125 mg/L
same,response vs control in vivo at 1 mg/kg,[2]; twice on day 1 and day 5,> 377%
same,response vs control in vivo at 5 mg/kg,"[3]; 5 mg/kg i.v., twice on day 1 and day 5, day 10, read-out: T/C (average tumor weight, treated/control)",12%
CN(C)CCN1C(=O)c2cc(-c3ccccc3)c3[nH]c4ccc(O)cc4c3c2C1=O [compound 27],MIC,[1],0.31 mg/L
same,response vs control in vivo at 30 mg/kg,"[3]; 30 mg/kg i.v., twice on day 1 and day 5, day 10, read-out: T/C (average tumor weight, treated/control)",15%
CN(C)CCN1C(=O)c2ccc3[nH]c4cc(O)ccc4c3c2C1=O [compound 28],MIC,[1],0.8 mg/L
same,response vs control in vivo at 5 mg/kg,[2]; twice on day 1 and day 5,176%
same,response vs control in vivo at 25 mg/kg,[2]; twice on day 1 and day 5,379%
CN(C)CCN1C(=O)c2ccc3c(c2C1=O)c1cc(O)ccc1n3C [compound 30],MIC,[1],0.1 mg/L
same,response vs control in vivo at 5 mg/kg,[2]; twice on day 1 and day 5,156%
same,response vs control in vivo at 25 mg/kg,[2]; only once on day 1,172%
CN(C)CCN1C(=O)c2ccc3[nH]c4cc(O)c(O)cc4c3c2C1=O [compound 31],response vs control in vivo at 5 mg/kg,[2]; twice on day 1 and day 5,176%
same,response vs control in vivo at 50 mg/kg,[3]; [4],31%
CN(C)CCN1C(=O)c2cc(Cl)c3[nH]c4ccc(O)cc4c3c2C1=O [compound 32],MIC,[1],0.31 mg/L
same,response vs control in vivo at 25 mg/kg,"[3]; 25 mg/kg i.v., only once on day 1, day 10, read-out: T/C (average tumor weight, treated/control)",9%
COc1cc2c(c3c1[nH]c1ccc(O)cc13)C(=O)N(CCN(C)C)C2=O [compound 38],MIC,[1],0.06 mg/L
same,response vs control in vivo at 7 mg/kg,[3]; [5],12%
CCc1cc2c(c3c1[nH]c1ccc(O)cc13)C(=O)N(CCN(C)C)C2=O [compound 39],MIC,[1],0.04 mg/L
same,response vs control in vivo at 10 mg/kg,[3]; [5],20%
"CCN(CC)CCN1C(=O)c2cc(C)c3[nH]c4ccc(O)cc4c3c2C1=O.Cl [compound 42, N-(2-diethylaminoethyl)-6-hydroxy-1-methylcarbazole-3,4-dicarboximide hydrochloride]",MIC,[1],0.063 mg/L
same,response vs control in vivo at 7 mg/kg,[3]; [5],18%
"CN(C)CCN1C(=O)c2cc(C3CC3)c3[nH]c4ccc(O)cc4c3c2C1=O [compound 49, N-(2-dimethylaminoethyl)-1-cyclopropyl-6-hydroxycarbazole-3,4-dicarboximidehydrochloride]",MIC,[1],0.2 mg/L
same,response vs control in vivo at 14 mg/kg,[3]; [5],19%
"CN(C)CCN1C(=O)c2cc(C3CCC3)c3[nH]c4ccc(O)cc4c3c2C1=O.Cl [compound 59, N-(2-dimethylaminoethyl)-1-cyclobutyl-6-hydroxycarbazole-3,4-dicarboximide hydrochloride]",MIC,[1],0.16 mg/L
same,response vs control in vivo at 14 mg/kg,[3]; [5],12%
Cc1cc2c(c3c1sc1ccc(O)cc13)C(=O)N(CCN(C)C)C2=O [compound 61],MIC,[1],0.08 mg/L
same,response vs control in vivo at 10 mg/kg,[3]; [4],27%
CNCCN1C(=O)c2cc(C)c3[nH]c4ccc(O)cc4c3c2C1=O [compound 69],MIC,[1],0.25 mg/L
same,response vs control in vivo at 10 mg/kg,[3]; [5],19%
"CCN(CC)CCN1C(=O)c2cc(OC)c3[nH]c4ccc(O)cc4c3c2C1=O.Cl [compound 70, N-(2-diethylaminoethyl)-6-hydroxy-1-methoxycarbazole-3,4-dicarboximide hydrochloride]",MIC,[1],0.16 mg/L
same,response vs control in vivo at 10 mg/kg,[3]; [5],18%
CCNCCN1C(=O)c2cc(C)c3[nH]c4ccc(O)cc4c3c2C1=O [compound 71],MIC,[1],0.16 mg/L
same,response vs control in vivo at 10 mg/kg,[3]; [5],16%
CC1CC1c1cc2c(c3c1[nH]c1ccc(O)cc13)C(=O)N(CCN(C)C)C2=O (centres unmarked) [compound 74],MIC,[1],0.16 mg/L
same,response vs control in vivo at 10 mg/kg,[3]; [5],19%
